According to patent US7718651B2, “Inhibitors of FtsZ and uses thereof” (priority 2002, dated 2010):

System: M. tuberculosis H37Rv
Assay: microbe, parasite or virus in culture
Type: cell-based
Settings: M. tuberculosis H37Rv, screen concentration 12.5 g/ml [sic], Table 8

Row | SMILES | % Inh [%]
1 | CCOC(=O)Nc1cc2[nH]c(-c3ccccc3)nc2c(N(C)Cc2ccccc2)n1 [Compound A3] | 99
2 | CCOC(=O)Nc1cc2[nH]c(-c3ccc(Cl)cc3)nc2c(N(CCc2ccccc2)Cc2ccccc2)n1 [Compound A4] | 99
3 | CCOC(=O)Nc1cc2[nH]c(-c3ccc(C)cc3)nc2c(N(CC)CC)n1 [Compound A13] | 98
4 | CCOC(=O)Nc1cc2[nH]c(-c3ccc([N+](=O)[O-])cc3)nc2c(N(CCc2ccccc2)Cc2ccccc2)n1 [Compound A14] | 98
5 | CCOC(=O)Nc1cc2[nH]c(-c3ccc(Oc4ccccc4)cc3)nc2c(N(CCc2ccccc2)Cc2ccccc2)n1 [Compound A15] | 98
6 | CCOC(=O)Nc1cc2[nH]c(-c3ccc(OC)cc3)nc2c(N(CCc2ccccc2)Cc2ccccc2)n1 [Compound A16] | 98
7 | CCOC(=O)Nc1cc2[nH]c(-c3ccc(CC)cc3)nc2c(N(CCc2ccccc2)Cc2ccccc2)n1 [Compound A17] | 98
8 | CCOC(=O)Nc1cc2[nH]c(-c3cccc4ccccc34)nc2c(N(CCc2ccccc2)Cc2ccccc2)n1 [Compound A18] | 98
9 | CCOC(=O)Nc1cc2[nH]c(CCc3ccccc3)nc2c(N(CCc2ccccc2)Cc2ccccc2)n1 [Compound A19] | 98
10 | CCOC(=O)Nc1cc2[nH]c(-c3ccccc3F)nc2c(N(CCc2ccccc2)Cc2ccccc2)n1 [Compound A20] | 98
11 | CCOC(=O)Nc1cc2nc(-c3ccc(Cl)cc3)[nH]c2c(N(CCc2ccccc2)Cc2ccccc2)n1 [Compound A27] | 97
12 | CCOC(=O)Nc1cc2[nH]c(-c3cc(OC)c(OC)c(OC)c3)nc2c(N(CCc2ccccc2)Cc2ccccc2)n1 [Compound A28] | 97
13 | CCOC(=O)Nc1cc2[nH]c(-c3cc(OC)c(OC)cc3OC)nc2c(N(CCc2ccccc2)Cc2ccccc2)n1 [Compound A29] | 97
14 | COc1ccc(OC)c(-c2nc3c(N(CCc4ccccc4)Cc4ccccc4)nc(NC(=O)O)cc3[nH]2)c1 [Compound A30] | 97
15 | CCOC(=O)Nc1cc2[nH]c(-c3ccccc3)nc2c(N(CCc2ccccc2)Cc2ccccc2)n1 [Compound A31] | 97
16 | CCOC(=O)Nc1cc2[nH]c(-c3ccc(C(F)(F)F)cc3)nc2c(N(CCc2ccccc2)Cc2ccccc2)n1 [Compound A32] | 97
17 | CCOC(=O)Nc1cc(OCC)c2nc(-c3ccccc3)c(-c3ccccc3)nc2n1 [Compound A38] | 95
18 | CCOC(=O)Nc1cc2c(c(N)n1)N=C(CN(C)c1ccccc1)CN2 [Compound A45] | 93
19 | CCOC(=O)Nc1cc(N/N=C/c2ccccc2)c2nc[nH]c2n1 [Compound A48] | 92
20 | CCOC(=O)Nc1cc2nc(-c3ccccc3)c(-c3ccccc3)nc2c(N)n1 [Compound A49] | 92
21 | CCOC(=O)Nc1cc(N/N=C/c2ccccc2)c(N)c(N)n1 [Compound A54] | 91
22 | CCOC(=O)Nc1cc(N/N=C/c2ccccc2)c2nc(SCc3ccccc3)[nH]c2n1 [Compound A57] | 89
23 | CCOC(=O)Nc1cc(NC/C(=N/O)c2ccc(Cl)cc2Cl)c([N+](=O)[O-])c(N)n1 [Compound A58] | 89
24 | CCOC(=O)Nc1cc(Nc2ccccc2)c([N+](=O)[O-])c(N)n1 [Compound A59] | 88
25 | CCOC(=O)Nc1cc2c(c(N)n1)N=C(c1ccc(F)cc1)CN2 [Compound A60] | 87

Same assay, conditions: Mycobacterium tuberculosis; M. tuberculosis H37Rv; at 12.5% μg/ml (so in the source); read-out: Primary Screen PI (% inhibition of growth)

Row | SMILES | inhibition of growth at 12.5 µg/mL [%]
26 | CCOC(=O)Nc1cc2nc(-c3ccccc3)c(-c3ccccc3)nc2c(N)n1 [Compound 3302-89F, (5-Amino-2,3-diphenyl-pyrido[3,4-b]pyrazin-7-yl)-carbamic acid ethyl ester] | 92
27 | CCOC(=O)Nc1cc2nc(-c3ccccc3)c(-c3ccccc3)nc2c(OCC)n1 [Compound 3491-23, (5-Ethoxy-2,3-diphenyl-pyrido[3,4-b]pyrazin-7-yl)-carbamic acid ethyl ester] | 95

Same assay, conditions: in words

Row | SMILES | activity against M. tuberculosis H37Rv in the primary screen
28 | CCOC(=O)Nc1cc2nc(-c3ccccc3)c(-c3ccccc3)nc2c(N)n1 [Compound 3302-89F, (5-Amino-2,3-diphenyl-pyrido[3,4-b]pyrazin-7-yl)-carbamic acid ethyl ester] | demonstrated activity
29 | CCOC(=O)Nc1cc2nc(-c3ccccc3)c(-c3ccccc3)nc2c(OCC)n1 [Compound 3491-23, (5-Ethoxy-2,3-diphenyl-pyrido[3,4-b]pyrazin-7-yl)-carbamic acid ethyl ester] | demonstrated activity
